According to PubChem BioAssay AID1117361 (Southern Research Institute, 2015):

Target: Protein Tat (Human immunodeficiency virus type 1 group M subtype B (isolate HXB2)) (UniProt P04608)
Test: inhibitors of Tat binding to TAR RNA, dose response, counter-screen for Vif-APOBEC3G degradation inhibitor project, biochemical, fluorescence polarization, FAM-labeled TAR RNA (AID 1117361)

Chain of Protein Tat (Human immunodeficiency virus type 1 group M subtype B (isolate HXB2)) (P04608 whole entry, looked up): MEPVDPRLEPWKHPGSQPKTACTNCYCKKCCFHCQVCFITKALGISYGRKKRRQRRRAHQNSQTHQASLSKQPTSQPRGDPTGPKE

| Structure (SMILES) | IC50 [µM] |
| --- | --- |
| O=C(NC1CC1)c1cc(-c2ccco2)nc2ccccc12 | 9.27 |
| CCN(CC)C(=O)c1ccc2c(c1)C1C(Cl)C(Sc3ccccc3[N+](=O)[O-])CC1C(C(=O)O)N2 (configuration not stated) | 5.54 |
| O=C1C2C3CCCC3=C3CCCC3C2C(=O)N1c1ccccc1 (configuration not stated) | 8.28 |
| CC(C)OC(=O)c1cccc(C(=O)O)n1 | 1.92 |
| CCN1CCN(C2=NC(=O)/C(=C/c3ccc(C)o3)S2)CC1 | 1.47 |
| Cc1cc(C)c(C(=O)/C=C/c2ccco2)c(=O)[nH]1 | 12.1 |
| O=c1cc2c(=O)oc3cc(O)c(O)oc3c2c(O)c1O | 12.3 |
| CO[C@H]1C=CO[C@@]2(C)Oc3c(C)c(O)c4c(O)c(c(C=NN5CCN(C)CC5)c(O)c4c3C2=O)NC(=O)C(C)=CC=C[C@H](C)[C@H](O)[C@@H](C)[C@@H](O)[C@@H](C)[C@H](OC(C)=O)[C@@H]1C | 11.2 |
| COc1ccc(O)c(C(=O)C2c3ccccc3C(=O)N2c2ccc(C)cc2)c1 (configuration not stated) | 0.303 |
| CNc1ccc(Br)cc(C(=O)/C=C/c2cc(OC)ccc2OC)c1=O | 9.75 |
| CC(CNc1ccccc1O)C(=O)O (configuration not stated) | 32.7 |
| CN(C)C(=O)c1nc2ccc(Cl)cn2c1CN1CCCC(OCc2ccccc2)C1 (configuration not stated) | 44.6 |
| Cc1cccc(-n2c(Cc3cc(=O)[nH]c(=O)[nH]3)nnc2SC(C)C)c1 | 28.2 |
| C=CC1=C(C(=O)O)N2C(=O)C(NC(=O)Cc3ccccc3)C2SC1 (configuration not stated) | 64.2 |
| O=C1/C(=C/c2ccco2)SC(=S)N1C1CCS(=O)(=O)C1 (configuration not stated) | 5.05 |
| FC(F)(F)c1cc(-c2ccco2)nc(NCc2ccco2)n1 | 28.5 |
| CCN(CC)c1ccc(/C=N/n2c(C)cc(C)cc2=O)cc1 | 5.27 |
| CN1CCc2c(sc3c2c(NCc2ccco2)nc2nnnn23)C1 | 79.8 |
| O=C(COc1ccccc1Cl)c1ccc[nH]1 | 14.6 |
| O=C1CCCC(O)=C1N=Nc1cccc(C(=O)O)c1 | 13.7 |
| CCC1S/C(=C(\C#N)C(=O)NCc2ccco2)N(c2ccc(F)cc2)C1=O (configuration not stated) | 14.9 |
| COc1ccc(NC(=O)N2c3ccc(OC)cc3C(C)=CC2(C)C)cc1 | 3.29 |
| COc1cc(C(=O)NCc2nnc(SCC(=O)Nc3nc4ccc(C)cc4s3)o2)cc(OC)c1OC | 35.9 |

| Structure (SMILES) | IC50 [µM] |
| --- | --- |
| Cc1ccc(C=C2C(Cl)=C(Cl)C(Cl)=C2Cl)cc1 | 4.67 |
| Cc1cc(C(=O)Nc2sc3c(c2C#N)CCCCC3)cs1 | 23.6 |
| O=C(O)c1[nH]c2ccc(Cl)cc2c1CC(=O)N1CCN(C(=O)c2ccco2)CC1 | 69.5 |
| Cn1nc(-c2ccc(Cl)cc2)c2cc(C(=O)N3CCN(c4ccccc4)CC3)sc21 | 12.6 |
| CC(C)c1ccc(/C=C/C(=O)N2CCc3ccccc3C2)cc1 | 33.7 |
| Cc1cc(NC(=O)CCNS(=O)(=O)c2cc(Br)cnc2N)ccc1Br | 93.7 |
| CN1CCc2cccc3c2[C@H]1Cc1ccc(O)c(O)c1-3 | 19.1 |
| CN(C)c1ccc(Cc2cc3c(O)ccc(O)c3cc(Cc3ccc(N(C)C)cc3)c2=O)cc1 | 85.4 |
| O=C(/C(=N/N=C/c1ccc(O)c(O)c1O)c1ccccc1)c1ccccc1 | 35.2 |
| O=C(O)c1ccc(Cl)c2c1C1C=CCC1C(c1ccccn1)N2 (configuration not stated) | 2.81 |
| CCOc1cccc(=O)c2c(C)n(-c3ccc(C(=O)O)cc3)c(C)c12 | 3.3 |
| CCOc1ccc(-n2c(Cc3cc(=O)[nH]c(=O)[nH]3)nnc2SC(C)C(=O)OC)cc1 (configuration not stated) | 92.9 |
| COC(=O)\C(C(C)=O)=C(/C=C/C=C/C=C/N(C)C)N(C)C | 56.3 |
| O=C1c2sc3nc4n(c(=O)c3c2CCC1Br)CCCCC4 (configuration not stated) | 4.82 |
| Cc1cc(NC(=O)Cc2cccs2)no1 | 55.9 |
| O=C(O)c1cccc(-n2cccc2/C=C/[N+](=O)[O-])c1 | 5.57 |
| Cc1cc([N+](=O)[O-])cc2c1NC(c1ccccn1)C1CC=CC21 (configuration not stated) | 49.1 |
| Cc1c(O)cc2c(c1O)C(=O)CC(c1ccc(O)cc1)O2 (configuration not stated) | 37.2 |
| O=C1CC(Nc2ccc(N3CCOCC3)cc2)C(=O)N1C1CCCCC1 (configuration not stated) | 11.6 |
| O=c1cc(-c2ccccc2Cl)c2c([nH]1)CCC2 | 18.8 |
| Cc1onc(-c2ccccc2Cl)c1C(=O)NCc1ccco1 | 6.65 |
| O=C(/C=C/c1ccco1)NC(=S)Nc1ccccc1N1CCOCC1 | 25.8 |
| O=CN/C=C/c1cc(O)ccc1O | 11 |

| Structure (SMILES) | IC50 [µM] |
| --- | --- |
| Cc1ccc(C)n1-c1cccc(C(=O)O)c1 | 2.07 |
| CC(C(=O)O)N1C(=O)/C(=C/C=C/c2ccco2)SC1=S (configuration not stated) | 1.54 |
| Cc1ccc(NC(=O)CN(C)C(=O)c2cc(-c3ccco3)nc3ccccc23)cc1 | 69.2 |
| Cc1cccc(N2C(=O)NC(=O)/C(=C/c3cc4c(cc3[N+](=O)[O-])OCO4)C2=O)c1 | 0.906 |
| O=S(=O)(c1ccc2nc(-c3ccco3)c(-c3ccco3)nc2c1)N1CCOCC1 | 44.9 |
| Cc1ccc(C)n1/N=C1/NC(=O)CS1 | 0.882 |
| CC1=C(C(=O)Nc2ccccc2)C(c2ccc(C)o2)n2c(s/c(=C\c3ccco3)c2=O)=N1 (configuration not stated) | 5.9 |
| COC(=O)C1=C(C)N(Cc2ccccc2)C(=O)/C1=C\c1ccco1 | 79.7 |
| O=C1CCC/C1=C/Nc1ccc2c(c1)OCO2 | 19.7 |
| O=C(CCCN1C(=O)/C(=C\c2ccco2)SC1=S)Nc1cccc2ccccc12 | 7.92 |
| CNc1ccc(Br)cc(C(=O)/C=C/c2cccc(OC)c2OC)c1=O | 8 |
| CCN1CCN(c2cc(N3CCN(C(=O)c4ccco4)CC3)c3c4c(onc24)-c2ccccc2C3=O)CC1 | 5.77 |
| C=C(C)C(=O)Nc1cccc(C2=NOC3(C2)C[C@H](C(N)=O)N(C(=O)C(c2ccccc2)c2ccccc2)C3)c1 (some centres not stated) | 31.7 |
| O=C(CCS(=O)(=O)c1ccc(Br)cc1)NC1CCCC1 | 50.8 |
| O=C(COC(=O)/C=C/c1ccco1)Nc1ncc(C(F)(F)F)cc1Cl | 20.2 |
| C=CCSC1=N/C(=C\C=C\c2ccco2)C(=O)S1 | 1.89 |
| O=[n+]1c2c(n([O-])c3cc(Cl)ccc31)CCCC2 | 42.9 |
| C/C(=N\Nc1ccc(Cl)c(C(=O)O)c1)c1ccc[nH]1 | 21.4 |
| O=C1CC(c2ccco2)CC(O)=C1C=Nc1cc(Cl)ccc1Cl (configuration not stated) | 7.33 |
| CN1C(=O)/C(=C/c2cccn2-c2ccc3ccccc3c2)C(=O)NC1=S | 44.5 |
| CCN(C(=O)c1coc(=O)c(Br)c1)c1ccc2c(c1)OCO2 | 1.17 |
| Cc1cc(/C=C2\C(=O)NC(=O)N(c3cccc(F)c3)C2=O)c(C)n1-c1cc(C(=O)O)cc(C(=O)O)c1 | 2.95 |
| COc1cccc(=O)c2c(C)n(-c3ccc(C(=O)O)cc3)c(C)c12 | 3.06 |

| Structure (SMILES) | IC50 [µM] |
| --- | --- |
| N=C1S/C(=C\c2ccco2)C(=O)N1c1ccc2c(c1)OCO2 | 18.4 |
| Oc1ccc(N=Cc2sc3ccccc3c2Cl)cc1 | 62.3 |
| Cc1onc(-c2c(F)cccc2Cl)c1C(=O)Nc1nnc(C2CC2)s1 | 60.7 |
| Cc1cc(-c2n[nH]c(=S)n2/N=C/C=C/c2ccco2)n[nH]1 | 18.6 |
| O=C(OCC1O[C@@H](OC(=O)c2cc(O)c(O)c(O)c2)[C@@H](OC(=O)c2cc(O)c(O)c(O)c2)[C@@H](OC(=O)c2cc(O)c(O)c(O)c2)[C@@H]1OC(=O)c1cc(O)c(O)c(O)c1)c1cc(O)c(O)c(O)c1 (some centres not stated) | 25.4 |
| CC(=O)c1ccc2c(c1)C1C=CCC1C(C(=O)O)N2 (configuration not stated) | 2.47 |
| Cc1cccc(N/N=C/c2ccc(O)c(O)c2O)c1 | 36 |
| O=C1NC(=O)N(c2ccc(Cl)cc2)C(=O)/C1=C\c1ccc(Sc2nc3ccccc3[nH]2)o1 | 3.41 |
| COC(=O)CCC(=O)OC1(C)C(=O)C2=COC(c3ccc(OC)cc3)=CC2=C(Br)C1=O (configuration not stated) | 13 |
| c1cnc(N2CCN(c3cnccn3)CC2)nc1 | 71.9 |
| C=CCn1c(COc2ccc(F)cc2)nnc1SCC(=O)NC(=O)NCc1ccco1 | 93.8 |
| CN(C)C(CNC(=O)c1cccnc1Sc1ccccc1)c1ccco1 (configuration not stated) | 68.7 |
| CCc1c(C)sc(NC(=O)OC)c1C(=O)N1CCCCC1 | 30.2 |
| O=c1nc2s/c(=C\c3ccco3)c(=O)n2nc1Cc1ccccc1 | 5.21 |
| Cc1ccc2cc(C(c3nnnn3Cc3ccccc3)N3CCc4ccccc43)c(=O)[nH]c2c1 (configuration not stated) | 46.4 |
| O=[N+]([O-])c1c(NCCO)cc(Sc2nc3ccccc3s2)c2nonc12 | 90.1 |
| CC(=O)c1sc2nc(-c3ccco3)ccc2c1N | 4.64 |
| Cc1ccc(S(=O)(=O)OCC(=O)Nc2ccc(C(=O)O)c(O)c2)cc1 | 75.3 |
| O=C1CC(c2ccco2)CC(O)=C1C=Nc1cc(Cl)cc(Cl)c1 (configuration not stated) | 9.58 |
| COc1ccc(/C=C(\NC(=O)c2ccc(OCC(C)C)cc2)C(=O)OCc2ccco2)cc1 | 61.5 |
| CCOC(=O)CNc1ccc2c(c1)OCO2 | 1.47 |
| COCCCNC(=O)/C(C#N)=C/c1ccc(OCC(=O)O)c(OC)c1 | 34.4 |
| CNC[C@H](O)c1ccc(O)c(O)c1 | 11.8 |

| Structure (SMILES) | IC50 [µM] |
| --- | --- |
| O=C(NN1C(=O)/C(=C/C=C/c2ccco2)SC1=S)c1ccccc1O | 4.46 |
| C(=C\c1ccco1)/c1ccc2ccccc2n1 | 9.39 |
| CCN1C(=O)/C(=C\c2ccc([N+](=O)[O-])s2)C(=O)NC1=S | 4.07 |
| Cc1ccc(/C=C/C(=O)Nc2cccc(S(=O)(=O)N3CCOCC3)c2)o1 | 89.1 |
| O=C1NC(c2cccc(Br)c2)=N/C1=C\c1ccco1 | 9.2 |
| CCOC(=O)N1CCN(C(=O)c2ccc3c(SCC(=O)O)c4c(nc3c2)CCC4)CC1 | 7.65 |
| Fc1ccccc1/C=C1\CCCC2=C1Nc1ncnn1C2c1ccccc1F (configuration not stated) | 23.7 |
| O=C(/C=C/c1ccco1)N(c1ccccn1)c1ccccn1 | 7.9 |
| Cc1ccc(N2C(=O)/C(=C\c3ccco3)SC2=S)cc1 | 36 |
| COc1ccc2ccccc2c1C1CC(=O)N2CN(Cc3ccco3)CSC2=C1C#N (configuration not stated) | 67.7 |
| O=C(O)CC(C(=O)O)N1C(=O)/C(=C/c2ccc(-c3nc4ccccc4s3)o2)SC1=S (configuration not stated) | 11.3 |
| CC(N=Cc1cccc(O)c1O)c1ccccc1 (configuration not stated) | 6.96 |
| CC1CCCN(Cc2c(O)ccc3c2O/C(=C\c2ccco2)C3=O)C1 (configuration not stated) | 5.6 |
| C=CCNc1nc2ccccc2nc1NS(=O)(=O)c1cccs1 | 45 |
| Cc1nc2c(=O)[nH]c(=S)[nH]c2[nH]c1=O | 13.2 |
| CC(C)N1CCC2(CC1)C(C#N)=C(N)NC(S)=C2C#N | 47.6 |
| O=C(Nc1ccccc1)c1ccc2nc(-c3ccco3)c(-c3ccco3)nc2c1 | 7.63 |
| Cc1cc(O)ccc1-c1cnc2ccccc2n1 | 80.8 |
| Cc1cccc(C)c1NC(=O)COC(=O)c1cc(-c2cccnc2)nc2ccccc12 | 84.6 |
| Cc1ccc(/C=C2\SC(=S)N(c3cccnc3)C2=O)o1 | 5.44 |
